Entries after “also recorded” stand apart in the source; their conditions may differ. No end group written: not given here.
Legend:
[1] = system: Hgsnat^P304L mice; assay: Survival / onset of lethal urinary retention under chronic daily treatment; assay type: in vivo, mouse; details: chronic daily 50 μg/kg BW; AVP6-treated Hgsnat^P304L mice
Procedure: Starting from 3 weeks of age, WT C57B16 and homozygous Hgsnat^P304L male and female mice were randomly divided in treatment and control groups (6-13 mice/sex/genotype/treatment; see Table I). The control group was daily administered with saline (5 μL to each nostril), while for the treatment group, saline was supplemented with 125 µg of AVP6/mL, which would result in a dose of approximately 50 μg/kg BW/day. The peptide formulation was prepared once, aliquoted and kept frozen at −80° C. until use. At 4 months, all mice were studied by EPM, OF, YM and NOR behavioral tests. Administration of the drug or saline was continued through the days on which the assays were conducted. Then approximately at 5 months 4-5 mice in each group were sacrificed. […] When such signs were detected, the mice were studied by ERG and sacrificed within 1-2 days. […]
Unlike human MPS III patients, Hgsnat^P304L mice at the age of approximately 8 months develop urinary retention resulting in abdominal distension and requiring humane euthanasia. […] Previously we determined the average survival age of Hgsnat^P304L mice as 42 weeks. To test whether the AVP6 treatment delayed development of this phenotype, mice in both treatment and vehicle groups were examined for the signs of urinary retention on a daily basis, starting from the age of 7 months, and immediately sacrificed, when abdominal distension was detected. […]

[2] = system: Hgsnat^P304L MPS IIIC mice; assay: Y-Maze test; assay type: in vivo, mouse; details: chronic daily intranasal 50 μg/kg BW from 3 weeks
Procedure: The spontaneous alternation behavior, spatial working memory and exploratory activity of mice were evaluated using a white Y-maze as follows. The maze consisted of three identical white Plexiglas arms (40×10×20 cm, 120° apart) under dim lighting conditions. Each mouse was placed at the end of one arm, facing the center, and allowed to explore the maze for 8 min. All experiments were performed at the same time of the day and by the same investigator to avoid circadian and handling bias. Sessions were video-recorded and arm entries were scored by a trained observer, unaware of the mouse genotype or treatment. Successful alternation was defined as consecutive entries into a new arm before returning to the two previously visited arms.
Alternation was calculated as: [number of alternations/total number of arm entries−2]×100.
Starting from 3 weeks of age, WT C57B16 and homozygous Hgsnat^P304L male and female mice were randomly divided in treatment and control groups (6-13 mice/sex/genotype/treatment; see Table I). The control group was daily administered with saline (5 μL to each nostril), while for the treatment group, saline was supplemented with 125 µg of AVP6/mL, which would result in a dose of approximately 50 μg/kg BW/day. […] When such signs were detected, the mice were studied by ERG and sacrificed within 1-2 days. […]

[3] = system: hippocampus CA1 pyramidal cells in hippocampal slices from Hgsnat^Geo and Hgsnat^P311L mice; assay: Evoked synaptic currents (AMPA EPSCs, NMDA EPSCs, paired pulse) by stimulating Schaffer collaterals in hippocampal slices; assay type: cell-based, mouse
Procedure: Model and Developmental time points: Hippocampal slices from Hgsnat^Geo and Hgsnat^P311L mice; P14-20.
Method: Synaptic currents (composite glutamatergic EPSCs, AMPA EPSCs and NMDA EPSCs) were evoked by stimulating Schaffer collaterals and recordings were conducted from the hippocampus CA1 pyramidal cells in hippocampal slices from Hgsnat^Geo and Hgsnat^P311L mice. Paired pulse stimulation protocol with increasing stimulus intervals was used to identify the locus of deficit.
Acute hippocampal slices were prepared as follows. Briefly, animals were anaesthetized deeply with isoflurane and decapitated. The brain was dissected carefully and transferred rapidly into an ice-cold (0-4° C.) solution containing the following (in mM): 250 sucrose, 2 KCl, 1.25 NaH2PO4, 26 NaHCO3, 7 MgSO4, 0.5 CaCl2 and 10 glucose, pH 7.4. The solution was oxygenated continuously with 95% O2 and 5% CO2, 330-340 mOsm/L. Transverse hippocampal slices (thickness, 300 μm) were cut using a vibratome (VT1000S; Leica Microsystems), transferred to a bath at room temperature (23° C.) with standard ACSF at pH 7.4 containing the following (in mM): 126 NaCl, 3 KCl, 1 NaH2PO^4, 25 NaHCO3, 2 MgSO4, 2 CaCl2), 10 glucose, continuously saturated with 95% 02 and 5% CO2 and allowed to recover for 1 h. During the experiments, slices were transferred to the recording chamber at physiological temperature (30-33° C.) continuously perfused with standard ACSF, as described above, at 2 ml/min. Pyramidal CA1 neurons from the hippocampus were identified visually using a 40× water immersion objective. Whole-cell patch-clamp recordings were obtained from single cells in voltage- or current-clamp mode and only 1 cell per slice was recorded to enable post-hoc identification and immunohistochemical processing. Recording pipettes (4-6 MΩ) were filled with a K-gluconate based solution for voltage-clamp recordings (in mM): 130 K-gluconate, 10 KCl, 5 diNa-phosphocreatine. 10 HEPES, 2.5 MgCl2, 0.5CaCl2,1 EGTA, 3 ATP-Tris, 0.4 GTP-Li, 0.3% biocytin, pH 7.2-7.4, 280-290 mOsm/L.
We further studied evoked glutamatergic EPSCs in CA1 pyramidal neurons at P14-20 by stimulating Schaffer Collateral afferents. […] The effect is aggravated at higher IPI, as both the readily releasable and reserve pools of synaptic vesicles get progressively emptied.

[4] = system: Hgsnat^P304L mice; assay: Wet spleen weight at sacrifice (splenomegaly); assay type: in vivo, mouse; details: chronic daily 50 μg/kg BW; Hgsnat^P304L mice at sacrifice (9.5-11 months); vs saline
[5] = system: Hgsnat^P304L MPS IIIC mice; assay: Open Field test; assay type: in vivo, mouse; details: 6-month-old Hgsnat^P311L (P304L) mice
[6] = system: Hgsnat-Geo and Hgsnat^P304L MPS IIIC mice; assay: Novel Object Recognition test; assay type: in vivo, mouse; details: single dose 17 hours before the test
[7] = 10 μM bath application, P14-20, Hgsnat^P311L (P304L) slices
[8] = single intranasal 10 μg/kg (low dose)
[9] = single intranasal 500 μg/kg (high dose)

AVP6: N-terminally acetylated Semax, a nootropic peptide having the amino acid sequence of MEHFPGP (SEQ ID NO:1) (Ac-MEHFPGP)
average survival age / life span [1]: 49 weeks | spatial memory (alternation between arms), Y-Maze ([2]; Hgsnat^P304L mice at 4 months): a significant difference between saline-treated and peptide-treated mice was observed only, when we pooled the data for both sexes together; also recorded: rescues deficits in spatial and short-term memory; also recorded: show the rescue of all above deficits | spatial memory (percent of alternation between arms), Y-Maze ([2]; Hgsnat^P304L mice at 6 months): demonstrated alternation similar to that of the WT mice; also recorded: partially rescues deficits in spatial and short-term memory; also recorded: show rescue of all above deficits | evoked AMPA current deficits [3, 7]: partially recovered deficits in AMPA currents; also recorded: not in AVP6-treated brain slices | evoked NMDA current deficits [3, 7]: not in AVP6-treated brain slices | paired pulse (PPF/PPR) deficits at lower inter-pulse intervals ([3]; 10 μM, IPI 100-200 ms Hgsnat^Geo, 100-300 ms Hgsnat^P311L): significantly recovered PPF deficits; also recorded: partially rescued deficits in the paired pulse stimulation; also recorded: is restored by treatment with AVP6 | paired pulse (PPF) deficits at higher inter-pulse intervals ([3]; 10 μM, IPI 400 and 500 ms): not at higher (400 and 500 ms) IPI | recording lost (suggesting neurotoxicity) ([3]; 50 μM): 5 of 11 | PPF deficits at 100, 200, 300 and 400 ms IPI ([3]; 50 μM, Hgsnat^P304L slices): PPF deficits were rescued | spleen weight / splenomegaly [4]: significantly lower spleen weight | hyperactivity, Open Field [5, 8]: failed to rescue hyperactivity or reduced anxiety; also recorded: do not rescue hyperactivity | reduced anxiety, Open Field [5, 8]: failed to rescue hyperactivity or reduced anxiety | hyperactivity, Open Field [5, 9]: failed to rescue hyperactivity or reduced anxiety; also recorded: do not rescue hyperactivity | reduced anxiety, Open Field [5, 9]: failed to rescue hyperactivity or reduced anxiety | behaviour in Novel Object Recognition test after single dose [6]: did not improve behaviour

Reference: US20240043473A1, “NOOTROPIC PEPTIDES FOR TREATING LYSOSOMAL STORAGE DISEASES” (Phoenix Nest Inc., priority 2021, published 2024)
